Measurements reported in article PMC6222425, “Novel 5′-Norcarbocyclic Derivatives of Bicyclic Pyrrolo- and Furano[2,3-d]Pyrimidine Nucleosides” (Molecules : A Journal of Synthetic Chemistry and Natural …, 2018).
Where two headings read alike, the source gives them in different places.

Experiments:
tumor cells = test: Cell viability MTT assay, statements on the tumor cell panel as a whole; assay type: cell-based; details: for Toxic effect on tumor cells: concentrations up to 100 μM
Protocol: (§1) The target compounds were tested on different lines of tumor cells, HuTu-80 (human duodenal cancer), B16 (mouse melanoma), A549 (human lung adenocarcinoma), KB-3-1 (human squamous cell carcinoma), HeLa (human squamous cell carcinoma of the cervix), as well as on human noncancer cells hFF3.
(§2) Human KB-3-1 epidermoid carcinoma cell line, human HeLa cervical epithelioid carcinoma cell line, human HuTu-80 duodenal cancer cells, human A549 lung carcinoma epithelial cells, mouse B16 melanoma cell line and human hFF3 fibroblast cells were obtained from the Russian Cell Culture Collection (St. Petersburg, Russia) and were cultured in DMEM (hFF3 cells in IMDM) supplemented with 10% (v/v) heat-inactivated fetal bovine serum, penicillin (100 U mL^−1), streptomycin (100 µg mL^−1) and amphotericin ([…]). Cells were maintained in a humidified atmosphere of 5% CO2 at 37 °C.
(§3) Cells growing in the logarithmic phase were seeded in triplicate in 96-well plates at a density of 5 × 10^3 cells per well for HeLa and HuTu-80 cells, 7 × 10^3 cells per well for KB-3-1 and hFF3, 10 × 10^3 for A549 and 20 × 10^3 for B16. The plates were incubated at 37 °C in a humidified 5% CO2 atmosphere. Cells were allowed to adhere to the surface for 24 h and then tested compounds were added at different concentrations and incubation was continued for 48 h. Then [3-(4,5-dimethylthiazol-2-yl)-2,5-diphenyltetrazolium bromide] (MTT) solution (10 µL, 5 mg mL^−1) was added to each well and the incubation was continued for an additional 3 h. The dark blue formazan crystals formed within the healthy cells were solubilized with DMSO and the absorbance was measured using a Multiscan RC plate reader at 570 nm. The IC50 was determined as the compound concentration required to decrease the A570 to 50% compared to the control (no tested compounds, DMSO) and was determined by interpolation from dose-response curves.

[1] = test system: A549 (human lung adenocarcinoma) cells; test: Cell viability analysis by MTT assay, A549; assay type: cell-based; details: for IC50: Homo sapiens, A549, MTT, 48 h incubation, read-out: Antiproliferative activity, IC50, A549; for Selectivity index, A549: ratio of IC50 on normal hFF3 cells to IC50 of A549
Protocol: as §1, §2
(§4) All compounds were dissolved in dimethylsulfoxide (DMSO) and stock solutions (10 mmol L^−1) were stored at −20 °C.
as §3

[2] = test system: B16 (mouse melanoma) cells; test: Cell viability analysis by MTT assay, B16; assay type: cell-based; details: for IC50: MTT, 48 h incubation, read-out: Antiproliferative activity, IC50, B16; for Selectivity index, B16: ratio of IC50 on normal hFF3 cells to IC50 of B16
Protocol: as §1, §2, §4, §3

[3] = test system: HuTu-80 (human duodenal cancer) cells; test: Cell viability analysis by MTT assay, HuTu-80; assay type: cell-based; details: for IC50: Homo sapiens, HuTu80, MTT, 48 h incubation, read-out: Antiproliferative activity, IC50, HuTu80; for Selectivity index, HuTu80: ratio of IC50 on normal hFF3 cells to IC50 of HuTu80
Protocol: as §1, §2, §4, §3

[4] = test system: human noncancer cells hFF3 (fibroblasts); test: Cell viability analysis by MTT assay, normal hFF3 cells; assay type: cell-based; details: for IC50: normal cells, MTT, 48 h incubation, read-out: Antiproliferative activity, IC50, hHFF3; for Toxic effect on normal hFF3 cells: concentrations up to 100 μM
Protocol: as §1, §2, §4, §3

[5] = test system: HeLa (human cervical epithelioid carcinoma) cells; test: Cell viability analysis by MTT assay, HeLa; assay type: cell-based; details: for IC50: Homo sapiens, HeLa, MTT, 48 h incubation, read-out: Antiproliferative activity, IC50, HeLa; for Selectivity index, HeLa: ratio of IC50 on normal hFF3 cells to IC50 of HeLa
Protocol: as §1, §2, §4, §3

[6] = test system: KB-3-1 (human epidermoid carcinoma) cells; test: Cell viability analysis by MTT assay, KB-3-1; assay type: cell-based; details: for IC50: MTT, 48 h incubation, read-out: Antiproliferative activity, IC50, KB-3-1; for Selectivity index, KB-3-1: ratio of IC50 on normal hFF3 cells to IC50 of KB-3-1
Protocol: as §1, §2, §4, §3

KB-3-1 cells [7] = test: Apoptosis detection by Annexin V/PI staining, flow cytometry; assay type: cell-based, human; details: 48 h
Protocol: To examine whether the tested 5′-norcarbocyclic derivatives induce cell death via apoptosis Annexin V and propidium iodide analysis were used (Figure 1). […] Annexin V binds phosphatidylserine residues, which are asymmetrically distributed toward the inner plasma membrane, and migrate to the outer plasma membrane during apoptosis.
Exponentially growing KB-3-1 cells in 6–well plates (5 × 10^5 cells per well) were treated with 3i (5, 10 and 20 µM) or with 0.1% (v/v) DMSO as a control for 48 h. The cells were stained with Annexin V-FITC and propidium iodide by the Annexin-FITC apoptosis staining/detection kit (Abcam) according to the instruction of the manufacturer. Briefly, cells were collected by scrapping, washed twice with cold PBS, and centrifuged (400 g, 5 min). Cells were resuspended in binding buffer (500 µL) and Annexin V–FITC (5 µL) and PI (5 µL) were added. Cells were incubated for 5 min at 20 °C in the dark. Finally, binding buffer (300 µL) was added to each tube, and the amount of apoptotic cells in samples were analyzed by flow cytometry. For each sample, 10,000 ungated events were acquired. Annexin V + PI − cells represent the early apoptotic populations. Annexin V + PI + cells represent either late apoptotic or secondary necrotic populations.

KB-3-1 cells [8] = test: Mitochondria depolarization analysis, JC-1 staining, flow cytometry; assay type: cell-based, human; details: 20 µM, KB-3-1, control 0.1% DMSO
Description: We next investigated whether 3i utilizes the mitochondrial ‘intrinsic’ pathway in the apoptotic death of KB-3-1 cells, since the pivotal role of mitochondria in triggering apoptosis is well established. We evaluated the mitochondrial transmembrane potential (∆Ψm) in KB-3-1 cells exposed to 3i using cytofluorometric analysis. Cells were stained with the specific mitochondrial cationic dye JC-1 (5,5′,6,6′-tetrachloro-1,1′,3,3′-tetraethyl benzimidazole carbocyanine iodide) that accumulates in the transmembrane space of polarized mitochondria and forms the so–called «J–aggregates», emitting red fluorescence. A decrease in ∆Ψm results in disappearance of J–aggregates and formation of JC-1 monomers, which emit in a green fluorescence.
Mitochondria involvement in apoptosis was measured by mitochondrial depolarization occurring early during onset of apoptosis. KB-3-1 cells were incubated with 3i (5, 10 and 20 µM) or 0.1% (v/v) DMSO as a control for 48 h. Then, cells were collected and incubated in complete media in the dark with mitochondrial potential sensor JC-1 (5 µg mL^−1) at 37 °C for 30 min, washed with cold PBS and resuspended in PBS (400 µL). Fluorescences of J–aggregate and J–monomer were recorded in the fluorescence channels 2 (FL2) and 1 (FL1), respectively, with flow cytometer «FC500». […]

Row | Compound | Toxic effect on tumor cells (tumor cells) | IC50 [1] [µM] | IC50 ([2]; Mus musculus, 48 h) [µM] | IC50 [3] [µM] | IC50 ([4]; Homo sapiens, HFF-3, 48 h) [µM] | Toxic effect on normal hFF3 cells [4] | IC50 [5] [µM] | IC50 ([6]; Homo sapiens, KB 3-1, 48 h) [µM] | Selectivity index value (tumor cells; depending on the nature and origin of tumor cells) | Selectivity index, A549 [1] | IC50 [2] [µM] | Selectivity index, B16 [2] | Selectivity index, HuTu80 [3] | Apoptotic cells (KB-3-1 cells [7]; 5 µM) [%] | Apoptotic cells (KB-3-1 cells [7]; 20 µM) [%] | Red fluorescence value (JC-1 J-aggregates) as compared to the control (KB-3-1 cells [8]) | Selectivity index, HeLa [5] | Selectivity index, KB-3-1 [6] | IC50 [4] [µM] | IC50 [6] [µM]
1 | CCCCCc1cc2cn(C3C=CC(O)C3)c(=O)nc2o1 (centres unmarked) [Compound 3b, 1-(4′-Hydroxy-2′-cyclopenten-1′-yl)-6-pentyl-3H-furano[2,3-d]-pyrimidine-2-one] | no toxic effect | > 100 | > 100 | > 100 | > 100 | no toxic effect | > 100 | > 100 |  |  |  |  |  |  |  |  |  |  |  | 
2 | CCCCCc1ccc(-c2cc3cn(C4C=CC(O)C4)c(=O)nc3o2)cc1 (centres unmarked) [Compound 3i, 1-(4′-Hydroxy-2′-cyclopenten-1′-yl)-6-(4-pentylphenyl)-3H-furano[2,3-d]-pyrimidine-2-one] |  | 47.5 ± 5.8 | 21 | 5.1 ± 0.6 | > 100 | not toxic | 6.5 ± 0.9 | 8.2 ± 1.3 | 15–20 | >2.1 | 21.3 ± 2.9 | >4.7 | >19.6 | 26 | 55.3 | decrease | >15.3 | >12.2 |  | 
3 | CCCc1cc2cn(C3C=CC(O)C3)c(=O)nc2[nH]1 (centres unmarked) [Compound 4a, 1-(4′-Hydroxy-2′-cyclopenten-1′-yl)-6-propyl-3H-pyrrolo[2,3-d]-pyrimidine-2-one] | no toxic effect | > 100 | > 100 | > 100 | > 100 | no toxic effect | > 100 | > 100 |  |  |  |  |  |  |  |  |  |  |  | 
4 | O=c1nc2[nH]c(-c3ccccc3)cc2cn1C1C=CC(O)C1 (centres unmarked) [Compound 4g, 1-(4′-Hydroxy-2′-cyclopenten-1′-yl)-6-phenyl-3H-pyrrolo[2,3-d]-pyrimidine-2-one] |  | 50.2 ± 6.7 | > 100 | > 100 | > 100 | not toxic | 90.2 ± 9.6 | 45.4 ± 5.3 |  | >2 |  |  |  |  |  |  | >1.1 | >2.2 |  | 
5 | CC(C)(C)c1ccc(-c2cc3cn(C4C=CC(O)C4)c(=O)nc3[nH]2)cc1 (centres unmarked) [Compound 4h, 1-(4′-Hydroxy-2′-cyclopenten-1′-yl)-6-(4-tertbutylphenyl)-3H-pyrrolo[2,3-d]-pyrimidine-2-one] |  | 25.3 ± 2.9 | 35 | 25.4 ± 3.1 | 70 |  | 25.8 ± 4.6 | 15 |  | 2.8 | 35.6 ± 4.2 | 1.9 | 2.8 |  |  |  | 2.7 | 4.6 | 70.9 ± 9.1 | 15.3 ± 1.1
6 | CCCCCc1ccc(-c2cc3cn(C4C=CC(O)C4)c(=O)nc3[nH]2)cc1 (centres unmarked) [Compound 4i, 1-(4′-Hydroxy-2′-cyclopenten-1′-yl)-6-(4-pentylphenyl)-3H-pyrrolo[2,3-d]-pyrimidine-2-one] |  | 15.6 ± 4.1 | 13.4 ± 3.2 | 8.5 ± 1.1 | 21.9 ± 4.8 |  | 11.1 ± 0.9 | 9.8 ± 0.7 |  | 1.4 |  | 1.6 | 2.6 |  |  |  | 1.9 | 2.2 |  | 
7 | CCCCCCCCCCc1cc2cn(C3CC(O)C(O)C3O)c(=O)nc2o1 (centres unmarked) [Compound 5, 1-(2′,3′,4′-Trihydroxycyclopent-1′-yl)-6-decyl-3H-furano[2,3-d]-pyrimidine-2-one] |  | > 100 | > 100 | > 100 | > 100 | not toxic | 70.2 ± 8.9 | 50.3 ± 9.8 |  |  |  |  |  |  |  |  | >1.4 | >2 |  | 
